Tests used:
P-glycoprotein (P-gp) = test: P-gp substrate assessment from Caco-2 transport (Papp and ER); format: in vitro ADME; conditions: Caco-2 cell monolayer, 5, 10 and 50 μM
Experimental: Caco-2 cell (passage 38) was used in the transport experiments. Cells were seeded on polycarbonate filters (12 mm diameter, pore size […]) at 1 × 10^5/cm^2. The cell monolayer was formed 21 days post seeding when the transepithelial electrical resistance (TEER) was above 1,000 Ω• cm^2. Three concentration levels (5, 10, and 50 μM) were set for the four schisandra lignans in the study. After preincubation for 1 h at 37°C, the solution of the four lignans was respectively added to the apical (0.4 mL) or basolateral (0.6 mL) chamber for absorptive (AP → BL) and secretive (BL → AP) permeability test. At the specified timepoints (0.5, 1, 1.5 and 2 h), 50 μL samples (n = 3) were withdrawn from receiver chamber, and meanwhile, 50 μL fresh buffer was added. The four lignans were determined by HPLC-MS method.
The apparent permeability coefficient (Papp) in the Caco-2 cell was calculated by the formula Papp = (ΔQ/Δt)/AC0, where ΔQ/Δt is the transport rate (nmol/s), which remained approximately constant in time, A is the well membrane area (0.6 cm^2), and C0 is the initial concentration of the four lignans (μM). The efflux rate (ER) was calculated by the formula ER = Papp (BL → AP)/Papp(AP → BL).

rat liver = test: In situ hepatic perfusion of four lignans; format: in vivo; conditions: hepatic perfusion 60 min, 10 μM, n = 3
Experimental: (§1) In situ liver perfusion was performed similarly as the method described previously (Uraki et al., [2016]). […] The perfusate consisted of Krebs–Hensleit buffer (pH 7.4) containing sodium taurocholate (4.75 mg/L), 1% bovine serum albumin, and glucose (1.2 g/L) was oxygenated using carbogen, 95% O2/5% CO2. The perfusate at 37°C was infused into the portal vein at a flow rate of 30 mL/min in a recirculatory manner. After 10-min equilibration, four schisandra lignans were added to the reservoir (final concentration of 10 μM). Perfusate (0.5 mL) and bile samples were collected at 0, 10, 20, 30, 40, 50, and 60 min after the addition of lignans. The same volume of blank perfusion buffer was immediately added to the reservoir after collection of the perfusate samples. After hepatic perfusion, rat was sacrificed and liver was removed, blotted dry, and weighed.

[1] = In situ hepatic perfusion of four lignans; format: in vivo, rat; conditions: Sprague-Dawley, rat, perfusate, perfusate AUC(0−1h), n = 3
Experimental: as §1

[2] = Identification of CYP450 isozymes in lignan metabolism, rat liver microsomes (no inhibitor / overall); format: in vitro ADME; conditions: for Metabolism rate: rat liver microsomes 1 mg/mL, 5 μM, Control (no inhibitor); for CYP450 isozymes participated in the metabolism (≥20% inhibition): rat liver microsomes incubation with selective inhibitors
Experimental: The CYP450s involved in the metabolism of schisandrin, schisantherin A, deoxyshisandrin and γ-schisandrin in rat or human liver microsomes were confirmed by comparison of the metabolism ratio before and after the addition of selective inhibitors to CYP450 isozymes. […] The supernate was injected to HPLC-MS for analysis of the four lignans.

## COc1cc2c(c(OC)c1OC)-c1c(cc(OC)c(OC)c1OC)C[C@H](C)[C@@H](C)C2 [Deoxyshisandrin, deoxyshisandrin]
P-glycoprotein (P-gp)
  P-glycoprotein (P-gp) substrate classification according to Papp and ER: some efflux trend
Rat liver; CCl4-intoxicated rats
  Total amount of analyte in bile: 0.75 ± 0.07 µg
  Total amount of analyte in liver: 14.57 ± 2.41 µg
Rat liver; Control rats
  Total amount of analyte in bile: 1.29 ± 0.30 µg
  Total amount of analyte in liver: 9.71 ± 1.32 µg
[1]; pH 7.4, CCl4-intoxicated rats
  AUC at 10 μM: 3620 ± 100 ng·h/mL
[1]; pH 7.4, Control rats
  AUC at 10 μM: 3090 ± 120 ng·h/mL
[2]
  Metabolism rate: 87.5 ± 7.8 nmol/min/mg
  CYP450 isozymes participated in the metabolism (≥20% inhibition): CYP2C11, CYP2D2, CYP2E1, and CYP3A

## COc1cc2c(c(OC)c1OC)-c1c(cc(OC)c(OC)c1OC)C[C@](C)(O)[C@@H](C)C2 [Schisandrin, schisandrin]
Rat liver; CCl4-intoxicated rats
  Total amount of analyte in bile: 1.06 ± 0.14 µg
  Total amount of analyte in liver: 19.55 ± 2.07 µg
Rat liver; Control rats
  Total amount of analyte in bile: 1.15 ± 0.27 µg
  Total amount of analyte in liver: 11.19 ± 1.18 µg
[1]; pH 7.4, CCl4-intoxicated rats
  AUC at 10 μM: 3860 ± 70 ng·h/mL
[1]; pH 7.4, Control rats
  AUC at 10 μM: 3230 ± 110 ng·h/mL
[2]
  Metabolism rate: 233.3 ± 35.6 nmol/min/mg
  CYP450 isozymes participated in the metabolism (≥20% inhibition): CYP2C6/11, CYP2E1, and CYP3A

Source: PMC5861220, “The Cytochrome P450-Mediated Metabolism Alternation of Four Effective Lignans From Schisandra chinensis in Carbon Tetrachloride-Intoxicated Rats and Patients With Advanced Hepatocellular Carcinoma” (Frontiers in Pharmacology, 2018)
